Numbered stars: 1 amine (or outer) side, 2 acyl side, 3 side chain; on linkers, the order of the positions; unused ones are H or OH. Bridge positions count the residues as written; N and C are the ends. Square brackets hold non-standard residues; d marks the D form. Peptide text beside a SMILES is read from it. ξ: configuration not given here. ξαMeNle(6-ylidene) = CC(CCCC=[*:3])(N[*:1])C(=O)[*:2]; Nle = CCCC[C@H](N)C(=O)O

Holding throughout (assay type): cell-based
Assay [1] addresses T1, β-catenin-BCL9/B9L complexes (Homo sapiens, UniProt P35222).
T1 construct: SAH-BCL9B disrupts native β-catenin-BCL9/B9L complexes; endogenous in cells; Colo320 or MM1S by context
T1 sequence (P35222 2-781): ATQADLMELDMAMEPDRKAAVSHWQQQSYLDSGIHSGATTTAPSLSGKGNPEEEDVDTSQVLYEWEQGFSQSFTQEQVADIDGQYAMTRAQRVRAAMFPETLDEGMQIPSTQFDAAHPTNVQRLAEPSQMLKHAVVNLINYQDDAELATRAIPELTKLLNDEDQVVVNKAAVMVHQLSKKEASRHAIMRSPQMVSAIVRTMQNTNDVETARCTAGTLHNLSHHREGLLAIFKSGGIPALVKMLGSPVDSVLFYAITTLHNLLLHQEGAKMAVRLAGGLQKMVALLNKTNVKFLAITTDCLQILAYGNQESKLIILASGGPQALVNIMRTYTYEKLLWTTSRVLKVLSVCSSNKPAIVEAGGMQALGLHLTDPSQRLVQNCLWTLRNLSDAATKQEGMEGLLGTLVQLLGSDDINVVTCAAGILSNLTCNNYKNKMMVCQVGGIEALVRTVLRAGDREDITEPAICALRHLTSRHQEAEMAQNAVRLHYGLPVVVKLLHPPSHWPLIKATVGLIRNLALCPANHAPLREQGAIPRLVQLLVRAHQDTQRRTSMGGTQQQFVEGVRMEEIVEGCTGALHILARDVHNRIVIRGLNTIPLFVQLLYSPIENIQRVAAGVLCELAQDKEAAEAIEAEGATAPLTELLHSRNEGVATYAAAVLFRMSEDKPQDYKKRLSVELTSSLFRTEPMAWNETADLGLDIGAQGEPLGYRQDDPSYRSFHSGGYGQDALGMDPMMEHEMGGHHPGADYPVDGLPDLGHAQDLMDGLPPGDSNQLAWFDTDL
Put plainly: Anti-BCL9 and B9L co-immunoprecipitation (disruption of native complexes). The conditions noted are these: cellular treatment. An excerpt:
Western blotting, performed as described (Sukhdeo, K. et al. Proc Natl Acad Sci USA 104, 7516-21 (2007)), employed the following primary antibodies: BCL9 (6109) (Mani, M. et al. Cancer Res 69, 7577-86 (2009)), BCL9 (ab37305, Abcam), B9L (AF4967, R&D Systems), β-catenin (CAT5-H10, Zymed), FITC (ab19224, Abcam), Actin-HRP (C-11, Santa Cruz), Caspase3 (#9662, Cell Signaling), IκBα (#9242, Cell signaling), PARP (#9542, Cell Signaling), E-cadherin (#3195, Cell Signaling), and Lamin B (sc-6217, Santa Cruz). Horseradish peroxidase conjugated secondary antibodies were purchased from Santa Cruz and SouthernBiotech. Co-immunoprecipitation was performed as described (Walensky, L. D. et al. Science 305, 1466-70 (2004)). Briefly, cells were lysed in 50 mM Tris, 150 mM NaCl, and 1% CHAPS buffer containing protease and phosphatase inhibitors. Lysates were precleared with Protein A/G PLUS-agarose beads (Santa Cruz Biotechnologies) for 3 hours followed by overnight incubation at 4° C. with the respective antibodies. Agarose A/G beads were then added for 4 h, pelleted, and washed as described (Walensky, L. D. et al. Science 305, 1466-70 (2004)). See results in FIG. 1D, FIG. 1H, FIG. 2A, FIG. 8.

The subject of assay [2] is CRC cell lines expressing BCL9. Nature of the assay: Cell proliferation of cultured colon cancer cells. As to the method:
(§1) Cell proliferation assays were performed as described (Sukhdeo, K. et al. Proc Natl Acad Sci USA 104, 7516-21 (2007)). Cell viability was measured using the CellTiter-Glo assay (Promega) according to the manufacturer's instructions. Apoptosis was evaluated by activated caspase-3 and PARP western blotting. See results in FIG. 3A-FIG. 3F, FIG. 13, and FIG. 20.

The subject of assay [3] is HCT116, HCT116DO20 and HCT116KO58 cells. Put plainly: Cell proliferation of cultured colon cancer cells. Conditions: HCT116 and derivatives, not dependent on Wnt/β-catenin activity. The method, then:
as §1

The subject of assay [4] is Wnt target genes in Colo320 cells. Nature of the assay: qPCR of Wnt/β-catenin target genes. The method, then: RNA was extracted with TRIzol Reagent (Invitrogen) according to the manufacturer's protocol. Total RNA (2 μg) was reverse transcribed (SuperScript VILO cDNA synthesis kit, Invitrogen) and qPCR was performed using an Applied Biosynthesis 7500 Real-time PCR system. Analysis of target genes was conducted in quadruplicate using POWER SYBR Green Master Mix (Applied Biosystems) with previously described primer sets. Transcripts levels were normalized to β-actin expression. These experiments were repeated three times. See results in FIG. 2B, FIG. 2C.
To measure the effects of vehicle, SAH-BCL9B, and SAH-BCL9MUT on the expression of Wnt/β-catenin target genes, including VEGF, in Colo320 (FIG. 18) and MM1S (FIG. 19) cell lines, quantitative PCR (qRT-PCR) analysis was performed. RNA was extracted with TRIzol Reagent (Invitrogen) according to the manufacturer's protocol. Total RNA (2 μg) was reverse transcribed (SuperScript VILO cDNA synthesis kit, Invitrogen) and qPCR was performed using an Applied Biosynthesis 7500 Real-time PCR system. PCR primers were designed as below: […]
Analysis of target genes was conducted in quadruplicate using POWER SYBR Green Master Mix (Applied Biosystems) as previously described (M. Mani et al., Cancer Res 69, 7577 (2009)). Transcripts levels were normalized to β-actin expression. These experiments were repeated three times.
(In general: In qPCR the cycle at which signal appears reflects the starting amount.)

The subject of assay [5] is VEGF secretion by Colo320 cells. Nature of the assay: VEGF ELISA. The conditions noted are these: 5 μM, 24 h. The method, then: (§2) VEGF ELISA was performed as previously described (Mani, M. et al. Cancer Res 69, 7577-86 (2009)). Briefly, cells (1×10^6) were treated with vehicle and SAH-BCL9 peptides (5 μM) for 24 h. VEGF levels in the supernatant were then measured according to the manufacturer's ELISA protocol (DuoSet, R&D Systems).
In general terms: In an ELISA, binding on a coated surface is turned into a signal by an enzyme label.

Assay [6] has as its system VEGF secretion by MM1S cells. Put plainly: VEGF ELISA. Conditions: 5 μM, 24 h. The method, then:
as §2

Assay [7] has as its system MM1S cells. Nature of the assay: Combination with doxorubicin, 3H-thymidine incorporation. The conditions noted are these: increasing concentrations of Dox. As to the method:
To test whether the anti-proliferative effect of SAH-BCL9B could synergize with other agents commonly used to treat MM or CRC, combination treatment studies were conducted. Indeed, the cytotoxic effects of 5-fluorouracil on CRC cells and of doxorubicin on MM cells were enhanced by SAH-BCL9B, but not by vehicle or the mutant peptide. See results in FIG. 21.

Assay [8] concerns caspase-3 or PARP. Nature of the assay: Apoptosis by activated caspase-3 and PARP western blotting. Conditions: western analysis. As to the method: as §1

In the case of “SAH-BCL9B(R359E): SEQ ID NO: 7: LSQEQLEHEERSLXTLRXIQRBLF; reverse polarity point mutant, negative control of SAH-BCL9B”, the “disruption of the association of β-catenin with BCL9 and B9L” value in assay [1] is reported as “no effect”.

Consider `CCCC[C@H](NC(=O)[C@H](CCCNC(=N)N)NC(=O)[C@H](CCC(N)=O)NC(=O)[C@@H](NC(=O)C1(C)CCCC=CCCCC(C)(NC(=O)[C@H](CC(C)C)NC(=O)[C@H](CO)NC(=O)[C@H](CCCNC(=N)N)NC(=O)[C@H](CCC(=O)O)NC(=O)[C@H](CCCNC(=N)N)NC(=O)[C@H](Cc2c[nH]cn2)NC(=O)[C@H](CCC(=O)O)NC(=O)[C@H](CC(C)C)NC(=O)[C@H](CCC(N)=O)NC(=O)[C@H](CCC(=O)O)NC(=O)[C@H](CCC(N)=O)NC(=O)[C@H](CO)NC(=O)[C@H](CC(C)C)NC(C)=O)C(=O)N[C@@H]([C@@H](C)O)C(=O)N[C@@H](CC(C)C)C(=O)N[C@@H](CCCNC(=N)N)C(=O)N1)[C@@H](C)CC)C(=O)N[C@@H](CC(C)C)C(=O)N[C@@H](Cc1ccccc1)C(N)=O` (some centres unmarked) [SAH-BCL9B] (Ac-LSQEQLEHRERSL[ξαMeNle(6-ylidene)]TLR[ξαMeNle(6-ylidene)]IQR[Nle]LF-NH2; staple 14-18), for which the proliferation entry was “significantly reduced the proliferation” in assay [2] and “no sensitivity” in assay [3]. In assay [4] (qPCR), the “mRNA levels of VEGF, c-Myc, and Axin2” value is “significantly reduced”. For the same compound, in assay [4] (qRT-PCR, Colo320), the “Actin expression (non-Wnt pathway target gene)” value is listed as “no change”. For the same compound, in assay [4] (qRT-PCR, Colo320 (FIG. 18A), normalized to β-actin), the “mRNA levels of VEGF, c-MYC, LGR5, LEF1, and AXIN2” value is recorded as “dose-responsively reduced”. For the same compound, in assay [1], the “disruption of the association of β-catenin with BCL9 and B9L” value is “dose-responsively disrupted”. Further, the VEGF secretion entry in assay [5] and in assay [6] was “decreased VEGF secretion” in each case. Also, the “enhancement of anti-tumor activity of doxorubicin” value in assay [7] is “significantly enhanced the anti-tumor activity”. The “caspase-3 or PARP activation” value in assay [8] is “did not activate caspase-3 or PARP”.

(Values after patent US12534501B2, “Targeting deregulated Wnt signaling in cancer using stabilized alpha-helices of BCL-9” (Dana-Farber Cancer Institute, Inc., priority 2011, dated 2026).)
